Reference: US20220362249A1, “METHODS FOR TREATING […]” (PTC Therapeutics MP, Inc., priority 2019, published 2022)
Where a name gives a salt, the structure may show the parent alone.

Experiments:
[1] = system: blood Phe; conditions: standard deviation of 220 μmol/L; cited from earlier work
[2] = system: blood Phe; assay: Reduction of blood Phe in patients with PKU, randomized crossover of PTC923 vs sapropterin dihydrochloride; assay type: in vivo, human; conditions: for Mean (SD) blood Phe, At baseline: 20 mg/kg period, Day 1 pre-dose; for Least squares mean (SE) change from baseline in blood Phe / Mean (SD) blood Phe, Change / Mean (SD) blood Phe, On treatment: 20 mg/kg/day oral, 7 days; for Mean (SD) blood Phe, On treatment: mean of days 3, 5 and 7
Procedure: Following screening for eligibility, a 7-day run-in period commenced. Patients then received 7 days of once-daily oral treatment with either PTC923 20 mg/kg/day (“low dose”), or PTC923 60 mg/kg/day or sapropterin dihydrochloride, in a random order. PTC923 (formerly CNSA-001) is oral sepiapterin. Each patient was randomized to one of six treatment sequences (FIG. 2). The randomization in six different treatment sequences was intended to minimize carry over effect, treatment period effect, patient fatigue, and natural fluctuations in blood Phe levels. A 7-day washout period separated each active treatment period. Patients were asked to maintain their usual pre-study diet, including consumption of amino acid mixtures if prescribed, and were monitored throughout the study by a metabolic dietician.
Blood samples for measurement of Phe were taken on 7, 5, 3, and 1 days before randomization. During treatment periods, blood was taken pre-dose for day 1 and post-dose for days 3, 5 and 7. During the washout periods, blood was taken for measurement of Phe on days 1, 3, 5, and 7. All samples were taken under fasting conditions or no earlier than 3 hours following a meal and at the same time of day. Blood Phe was measured using a validated LC-MS-MS technique of dried blood sampling via Volumetric Absorptive Microsampling (VAMS®) using Mitra® 4-sampler clamshells, at a central bioanalytical laboratory (Agilex Biolabs Pty Ltd).
The main objective of the study was to assess the efficacy of PTC923 measured as the mean blood Phe change from baseline. The efficacy population consisted of all patients who were randomized and had blood Phe measurements before treatment and at days 3, 5 and 7 of treatment from at least one treatment period. The safety population consisted of all patients who were randomized and who received any dose of study treatment. The sample size calculation was based on an all-comers, placebo-controlled regulatory study of sapropterin with an observed mean decrease in blood Phe of 99 μmol/L and standard deviation of 220 μmol/L, and assumed a true mean decrease in blood Phe of 300 μmol/L with 80% power utilizing a 2-sided α of 0.05.
Response to PTC923 was evaluated by measuring the mean change from baseline in blood Phe (calculated as the mean of measurements at days 3, 5 and 7 of each treatment period). Day 1 pre-dose blood Phe concentrations for each treatment period served as the individual patient specific baseline for that period.
The change from baseline in blood Phe of each treatment period was modelled using a linear mixed model for repeated measures (MMRM). The efficacy model included fixed effects for baseline for each treatment period, treatment group, sequence, period, and a random subject effect within each sequence, with a first order autoregressive AR (1) covariance structure. No unplanned covariates were included.
Pairwise comparisons in changes from baseline in Phe were performed between each PTC923 treatment and sapropterin treatment by calculating the least squares means with Dunnet's method of adjustment for multiple comparisons. The estimated change in blood Phe levels, their standard errors (SE) and associated p-values were calculated for each pairwise comparison. Dunnet's method of adjustment was used to account for the multiple comparisons of the test groups against the control group. This adjustment ensured that the overall Type I error rate under the null hypothesis was maintained despite multiple test groups being compared to the single control group.
The overall mean changes in blood Phe for each treatment were calculated and the standard deviations (SD) were determined.
A prespecified sensitivity analysis excluded treatment periods where baseline Phe was <300 μmol/L and a responder analysis looked at patients with baselines ≥300 μmol/L who responded to sapropterin and/or to PTC923 treatment by ≥20% reduction.

[3] = Adverse events in patients with PKU on PTC923 or sapropterin dihydrochloride; assay type: in vivo, human; conditions: 20 mg/kg
From the text: PTC923 safety was monitored and adverse events (AEs) were coded using the Medical Dictionary for Regulatory Activities (MedDRA®) version 21.0. Treatment-emergent adverse events (TEAEs) were defined as AE that began on or after first dose of study drug. A TEAE was associated with the study treatment currently being received, or the last study treatment before its onset. A treatment-related TEAE was, in the judgment of the investigator possibly, probably or definitely related to treatment. A serious AE (SAE) was defined as resulting in death, life-threatening AE, inpatient hospitalization or prolongation of existing hospitalization, a persistent or significant disability/incapacity or a substantial disruption of the ability to conduct normal life functions, or a congenital anomaly/birth defect.

[4] = system: phenylalanine plasma concentrations; conditions: cited from earlier work
[5] = Subjects with classical PKU (N = 11)

## C[C@H](O)[C@H](O)[C@H]1CNc2nc(N)[nH]c(=O)c2N1 [sapropterin dihydrochloride, reference compound]
[1]
  Observed mean decrease in blood Phe: 99 µmol/L
[2]; 20 mg/kg, n of 24
  Proportion of patients achieving blood Phe <360 μmol/L: 42%
[2]; All subjects (N = 24)
  Mean (SD) blood Phe, At baseline: 710.4 (370.0) μmol/L
  Least squares mean (SE) change from baseline in blood Phe: −91.5 (41.7) μmol/L
  Mean (SD) blood Phe, Change: −90.8 (226.9) μmol/L
  Mean (SD) blood Phe, On treatment: 619.5 (475.3) μmol/L
[2]; Day 3, 20 mg/kg
  Least squares mean change from baseline in blood Phe to first Phe measurement (Day 3): -72.3 µmol/L
[2]; [5]
  Mean (SD) blood Phe, At baseline: 903.5 (422.5) μmol/L
  Mean (SD) blood Phe, Change: 10.7 (221.6) μmol/L
  Mean (SD) blood Phe, On treatment: 914.2 (538.7) μmol/L
[2]; Subjects with classical PKU (N = 11), dihydrochloride, 20 mg/kg/day
  Least squares mean (SE) change from baseline in blood Phe: -2.8 µmol/L
[2]; Subjects with classical PKU (N = 11), listed as Sapropterin dihydrochloride, dihydrochloride, 20 mg/kg/day
  Least squares mean (SE) change from baseline in blood Phe: −2.8 (62.0) μmol/L
[2]; group of 12 responders (Phe reduction ≥20%, baseline ≥300 μmol/L), 20 mg/kg
  Least squares mean change from baseline in blood Phe: -139.70 µmol/L
[2]; non-classical subjects
  Non-classical subjects normalized (blood phenylalanine less than 120 micromole per liter): 15.4%
[3]
  Patients reporting any adverse event: 21%
  Patients reporting severe AE: 0%
  Patients reporting treatment-related AE: 0%
[3]; transient
  Headache (all-cause AE): 4%
[4]
  Classical PKU subjects that respond to treatment (historically): about 10%
